Values quoted from earlier work in patent publication US12310973B2, “Administration and dosage of diaminophenothiazines” (WisTa Laboratories Ltd., priority 2016, dated 2025).

What was measured:
[1] = system: TDP-43 aggregates in SH-SY5Y cells; conditions: 0.05 μM MT; cited from earlier work
[2] = system: huntingtin derivative containing a polyglutamine stretch of 102 residues; conditions: tested at 0, 10 and 100 μM; zebrafish; cited from earlier work

Substance: methylthioninium [MT]
- Reduction in number of TDP-43 aggregates [1]: 50%
- Formation of aggregates of huntingtin derivative (polyglutamine stretch of 102 residues) [2]: prevented the formation of such aggregates in zebrafish in a dose dependent manner
